Series [1] concerns RAW 264.7 macrophages. Put plainly: Flow cytometric analysis of nanocarrier uptake by macrophages (MFI), with or without endocytosis inhibitors. Format: cell-based. Conditions: 50 μM CytD or 50 μM CPZ pre-treatment; nanocarriers at 1.0 mg/mL polymer. How it is done:
(§1) Macrophage cell culture. RAW 264.7 macrophages were purchased from ATCC and were cultured in T75 polystyrene tissue culture flasks (BD Biosciences) in Dulbecco's Modified Eagle Medium supplemented with 10% fetal bovine serum (FBS) (Gibco) and 1% penicillin/streptomycin antibiotics (Life Technologies). Cells were passaged by mechanical scraping after reaching 70-80% confluency.
(§2) Flow cytometric analysis of nanocarrier uptake and cytotoxicity. For each specified cell line, a total of 100,000 cells were seeded per well in 24-well polystyrene plates (Falcon). Cells were allowed to adhere overnight at 37° C., 4.0% CO2. For uptake studies involving endocytosis inhibitor pre-treatments, cells were incubated with either PBS (i.e., no inhibitor), cytochalasin D (CytD, 50 μM) phagocytosis inhibitor, or chlorpromazine (CPZ, 50 μM) clathrin-mediated endocytosis inhibitor prior to administering nanocarriers. Inhibitor concentrations were chosen based on published reports^36,53. Cells were treated with nanocarriers at the specified polymer concentration for 2 h. […] A total of 10,000 single cell events were recorded per sample and the resulting data were analyzed using the Cytobank analysis suite^54. The median fluorescence intensity (MFI) was normalized by subtracting the average MFI from untreated cells and was used to quantify the cellular uptake of nanocarriers.
In general terms: In flow cytometry, cells or beads pass a laser one at a time.

Series [2] has as its system RAW 264.7 macrophages. Put plainly: Flow cytometric cytotoxicity (Zombie Aqua viability dye) in macrophages. Format: cell-based. Particulars: mouse, 70 %. How it is done: as §1, §2

Molecules are shown by their SMILES.

As for `C=C1[C@@H](C)[C@H]2[C@H](Cc3ccccc3)NC(=O)[C@]23[C@H](OC(C)=O)/C=C/[C@@](C)(O)C(=O)[C@@H](C)C/C=C/[C@H]3[C@@H]1O` [cytochalasin D], the “nanocarrier uptake after pre-treatment with endocytosis inhibitors (in words)” value in series [1] is given as “decreased uptake of all structures”.
On to `CCO` [70% ethanol, ethanol], for which, in series [2], the macrophage viability entry is reported as “below 30%”.
As for `CN(C)CCCN1c2ccccc2Sc2ccc(Cl)cc21` [chlorpromazine], in series [1], the “nanocarrier uptake after pre-treatment with endocytosis inhibitors (in words)” value is “decreased uptake of all structures”.
